Target: T1, UT-B (Homo sapiens, UniProt Q13336)
T1 construct: a red blood cell (i.e., erythrocyte), which endogenously expresses the urea transporter UT-B; endogenous in cells; host or cells: human red blood cells (whole venous blood, single donor)
T1 sequence (Q13336 1-389): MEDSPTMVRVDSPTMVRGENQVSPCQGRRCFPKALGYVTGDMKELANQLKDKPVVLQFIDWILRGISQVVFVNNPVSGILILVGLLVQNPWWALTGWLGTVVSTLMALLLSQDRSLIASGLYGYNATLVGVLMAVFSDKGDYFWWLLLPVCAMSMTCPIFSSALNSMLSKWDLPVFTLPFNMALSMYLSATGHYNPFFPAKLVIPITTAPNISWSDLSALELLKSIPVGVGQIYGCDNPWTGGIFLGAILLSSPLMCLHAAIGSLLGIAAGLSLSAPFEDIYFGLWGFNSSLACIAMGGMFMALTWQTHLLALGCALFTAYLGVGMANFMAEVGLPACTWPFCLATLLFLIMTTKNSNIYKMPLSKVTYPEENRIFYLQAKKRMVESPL
Assay: Stopped-flow light scattering, urea transport in human RBCs
Type: cell-based
Conditions: for inhibition of urea transport, inhibitor added externally only (sidedness): inhibitor only in urea-containing solution at time of stopped-flow; for reversibility of inhibition after washing of RBCs: 10 min pre-incubation (0.1 μM ureainh-101, 0.4 μM ureainh-302), then washout
Protocol: RBC urea and water permeabilities were assayed by stopped-flow light scattering using a Hi-Tech Sf-51 instrument (Wiltshire, UK). […] After an initial osmotic shrinking phase, the kinetics of increasing cell volume caused by urea influx were measured as the time-course of 90° scattered light intensity at 530 nm, with increasing cell volume resulting in reduced scattered light intensity. As a positive control, 0.7 mM phloretin was added to the RBC suspension prior to stopped-flow experiments. Measurements of water permeability were carried out similarly, with sucrose (cell-impermeant) used instead of urea to establish a 250-mM osmotic gradient. As a positive control, HgCl2 (0.3 mM) was added to the RBC suspension prior to stopped-flow measurements. Osmotic water permeability coefficients (Pf) were computed from light scattering data as described (van Hoek et al., J Biol Chem. 267:18267-69 (1992)).
After repeating the 96-well plate RBC lysis assay to confirm compound activity (see Example 2), bona fide urea transport inhibition was determined by stopped-flow light scattering from the kinetics of urea influx (RBC swelling) in response to an inwardly directed urea gradient. Rapid mixing of an RBC suspension with a hyperosmolar solution containing excess 250 mM urea produced rapid cell shrinking due to osmotic water efflux, followed by cell swelling as urea (and water) influx occurred.
To determine EC50 values for urea transport inhibition directly, RBC urea transport was measured by stopped-flow light scattering using a non-saturating concentration of extracellular urea (to avoid possible competition effects). EC50 for inhibition of RBC urea transport was determined independently by comparing stopped-flow light scattering curves to a model of cell shrinking-swelling. […]
The two coupled differential equations describing water efflux and solute influx in response to externally added urea or methylurea were numerically integrated using the forward Euler method (Δt=0.01 s) to reproduce the biphasic changes in cell volume observed experimentally. […] For each time step, a new cell volume (normalized to the initial size; V(i+1)/V(0)) and a new cell permeant concentration (U(i+1)) were calculated from V(i+1)/V(0)=V(i)/V(0)−Δt·Pf·(S/V(0))·vw·[Ie(1−V(i)/V(0))+(Ue−Uc(i))] and Uc(i+1)=Uc(i)/V(0)−Δt·Us·(S/V(0))·vw·(Ue−Uc(i)). […] The product of Pf and the surface area-to-volume ratio (S/V(0)) was determined to be 3.4×10^2 s^−1 and 8.5×10^2 s^−1 for human and mouse erythrocytes, respectively, from water permeability measurements. […]

| inhibition of urea transport, inhibitor added externally only (sidedness) (0.2 μM) | reversibility of inhibition after washing of RBCs | inhibition of urea transport, inhibitor added externally only (sidedness) (0.1 μM) | Compound |
| --- | --- | --- | --- |
| had a sizable effect | fully reversible inhibition | – | Cc1ccc(Nc2nnc(-c3ccc(C(N)=O)cc3)c3ccccc23)cc1 [ureainh-302] |
| – | fully reversible inhibition | did not inhibit urea transport | NC(=O)CSc1oc(-c2ccccc2)nc1S(=O)(=O)c1ccc(Br)cc1 [ureainh-101] |

Source: patent US20110053995A1, “BENZENESULFONANILIDE COMPOUND INHIBITORS OF UREA TRANSPORTERS” (THE REGENTS OF THE UNIVERSITY OF CALIFORNIA, priority 2006, published 2011)
